US20220023419A1, “INHIBITING INFLAMMATION” (THE COUNCIL OF THE QUEENSLAND INSTITUTE OF MEDICAL RESEARCH, priority 2018, published 2022)

Test system: EpCAM+ epithelial cells in intestinal organoids
Assay: Intestinal organoids from small intestine cultured with IFNγ, MHC class-II expression
Assay type: cell-based, mouse
Conditions: organoids from B6.MHC class-II-GFP or B6.WT mice cultured with IFNγ
Text: High levels of IFN-γ are secreted by both ILC1 and by conventional T cells in the small intestine. The mechanisms controlling MHC class-II expression by IEC, focusing on interferon (IFN) γ signalling were delineated, since this cytokine is known to potently induce MHC class-II expression. […] To understand the potential sources of IFNγ driving the expression of MHC class II, Rag^−/− common-γ-chain^−/− which lack innate lymphocyte populations, and Rag^−/− mice that lack only conventional TCR-rearranged T cells, were analyzed. […] After TBI-induced inflammation, conventional T cells were required for the upregulation of MHC class II in the ileum. […] In contrast, TBI induced IFN-γ secretion from conventional T cells (CD4^+ Tcon, CD8^+ Tcon) but not innate lymphocyte populations (not shown). […] Thus, constitutive MHC class-II expression on IEC in the ileum causes local T cell activation and IFNγ secretion, consistent with the induction of a local cytokine feed-forward cascade that amplifies MHC class-II expression on IEC. In order to confirm that the induction of MHC class-II expression by IEC was a direct effect of IFNγ, intestinal organoids were cultured from the small intestine of B6.MHC class-II-GFP or B6.WT mice with IFNγ.

“IFNγ: cytokine added to intestinal organoid cultures; known to potently induce MHC class-II expression” was tested, and the “MHC class-II expression by EpCAM+ epithelial cells in organoids” value was “did so rapidly in the presence of IFNγ”.
